Laboratory results as given in PubChem BioAssay AID2060599 (Molecular Pharmacology Branch, DTP, NCI, 2025).

Tested on: 817829-284-R-J1-PDC complex spheroids, viability
Test: Anticancer human tumor 817829-284-R-J1-PDC patient-derived colon adenocarcinoma cell line growth inhibition [CLK]
Conditions: for IC50: curve of first compound; for viability, T/C: stronger effect = lower value
Description: A high-throughput screen of multi-cell type tumor spheroids was designed to identify active combinations of […] and targeted small molecules. Complex spheroids include a stromal component modeled by human endothelial cells (HUVEC) and fibroblasts modeled by human mesenchymal stem cells (MSCs). The concentration ranges selected for each drug and investigational agent were based upon clinically achievable concentrations if the clinical Cmax of the agent was known.
Compounds. The drugs and investigational agents: cirtuvivint (SM08502; NSC835563), CC-671 (NSC850746), vemurafenib (NSC761431), tapotoclax (NSC804041), sotorasib (NSC818433), adagrasib (NSC831453), MRTX-1133 (NSC836407), BAY2416964 (NSC825713), copanlisib (NSC816437), inavolisib (NSC800729), abemaciclib (NSC768073), osimertinib (NSC779217), entinostat (NSC756642), eltanexor (KPT-8602, NSC794443), venetoclax (NSC766270), ceralasertib (NSC777638), bortezomib (NSC756655), olaparib (NSC753686), talazoparib (NSC767125), alisertib (NSC759677), peposertib (NSC802822), gemcitabine (NSC613327), 5-fluorouracil (NSC19893), SN-38 (NSC673596), oxaliplatin (NSC266046), paclitaxel (NSC125973), and doxorubicin (NSC123127), were obtained from the National Cancer Institute (NCI) Developmental Therapeutics Program Chemical Repository. The FDA-approved anticancer drug set is available from the Developmental Therapeutics Program at https://dtp.cancer.gov/organization/dscb/obtaining/available plates.htm. […] The stock solutions were prepared in dimethyl sulfoxide (DMSO, Sigma-Aldrich, St. Louis, MO, cat. D2650), except for the platinum complexes which were prepared in saline (Quality Biological, Gaithersburg, MD, cat. 114-055-101), at 800-fold the tested concentration and stored at -70 degrees C prior to their use. All drugs and investigational agents were tested over a range starting from a high concentration at or near the clinical Cmax and decreasing in half-log increments. If the clinical Cmax for an agent had not been determined, the highest concentration tested was 10 microM.
Cell Culture. All cells were maintained in an incubator at 37 degrees C and 5% CO2 with 95% humidity. The PDC lines were cultured according to standard operating procedures established by the NCI PDMR. Briefly, all PDCs were thawed and cultured in Matrigel-coated flasks prepared with a working solution of 1X Ham's F-12 nutrient mix, without supplementation (Invitrogen, Waltham, MA, cat. 11765054), 100 U/mL penicillin-streptomycin (Invitrogen, cat. 15140122), and 2.5% Matrigel (Corning Inc., Corning, NY, cat. 354248) for the first three passages. The 947758-054-R-J2-PDC line was cultured in 6B/Colon 1A media, which includes advanced DMEM/F-12 (Thermo Fisher Scientific, cat. 12634028), 10 mM HEPES (Thermo Fisher Scientific, cat. 15630080), 1X GlutaMAX supplement (Thermo Fisher Scientific, cat. 35050061), 0.1 mg/mL primocin (InvivoGen, cat. ant-pm-2), 10% defined fetal bovine serum, heat inactivated (HyClone Laboratories Inc., cat. SH30070.03HI), 1.25 mM N-Acetyl-L-cysteine (Sigma-Aldrich, cat. A9165), 10 mM nicotinamide (Sigma-Aldrich, cat. N0636), 1X B-27 supplement (Thermo Fisher Scientific, cat. 17504044), 1X N-2 supplement (Thermo Fisher Scientific, cat. 17502048), and 10 microM Y-27632 dihydrochloride (Tocris Bioscience, cat. 1254). The 876862-298-R-J1-PDC was cultured in 6E media, which includes all 6B/Colon 1A media components plus 50% L-WRN conditioned media (ATCC, cat. CRL-3276), 50 ng/mL recombinant human EGF recombinant protein (hEGF; Thermo Fisher Scientific, cat. PHG0311), 10 ng/mL recombinant human fibroblast growth factor 10 (hGFG-10; PeproTech, cat. 100-26), 1 ng/mL recombinant human fibroblast growth factor 2 (hFGF-2; PeproTech, cat. 100-18B), and 1 µM prostaglandin E2 (PGE2; Tocris, cat. 2296). The 227483-062-R1-J1-PDC line was cultured in Panc media, containing all 6E components except hFGF-2, with the addition of 500 nM SB-431542 (Selleckchem, cat. S1067) and 10 nM gastrin (Tocris, cat. 3006). […]

[1] = second compound 0.0316 µM, first compound 0.0316 µM
[2] = second compound 0.0316 µM, first compound 0.1 µM
[3] = second compound 0.0316 µM, first compound 0.316 µM
[4] = second compound 0.0316 µM, first compound 1 µM
[5] = second compound 0.1 µM, first compound 0.0316 µM
[6] = second compound 0.1 µM, first compound 0.1 µM
[7] = second compound 0.1 µM, first compound 0.316 µM
[8] = second compound 0.1 µM, first compound 1 µM
[9] = second compound 0.316 µM, first compound 0.0316 µM
[10] = second compound 0.316 µM, first compound 0.1 µM
[11] = second compound 0.316 µM, first compound 0.316 µM
[12] = second compound 0.316 µM, first compound 1 µM
[13] = second compound 1 µM, first compound 0.0316 µM
[14] = second compound 1 µM, first compound 0.1 µM
[15] = second compound 1 µM, first compound 0.316 µM
[16] = second compound 1 µM, first compound 1 µM
[17] = second compound 3.16 µM, first compound 0.0316 µM
[18] = second compound 3.16 µM, first compound 0.1 µM
[19] = second compound 3.16 µM, first compound 0.316 µM
[20] = second compound 3.16 µM, first compound 1 µM
[21] = second compound 10 µM, first compound 0.0316 µM
[22] = second compound 10 µM, first compound 0.1 µM
[23] = second compound 10 µM, first compound 0.316 µM
[24] = second compound 10 µM, first compound 1 µM
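Note: spheroids exposed to the agents for seven days before readout.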

## C=C(F)C(=O)N1CCN(c2nc(OCC3CCCN3C)nc3c2CCN(c2cccc4cccc(Cl)c24)C3)CC1CC#N (centres undefined) + CNC(=O)c1ccc(Nc2nc(OC3CCCC3)c3c(-c4ccc5nc(C)oc5c4)c[nH]c3n2)c(OC)c1
Second compound 0.0316 µM
  IC50: < 0.0316 µM
Second compound 0.1 µM
  IC50: < 0.0316 µM
Second compound 0.316 µM
  IC50: < 0.0316 µM
Second compound 1 µM
  IC50: < 0.0316 µM
Second compound 3.16 µM
  IC50: < 0.0316 µM
Second compound 10 µM
  IC50: < 0.0316 µM
[1]
  viability, T/C: 19.9%
[2]
  viability, T/C: 42.3%
[3]
  viability, T/C: 23.4%
[4]
  viability, T/C: 23.3%
Second compound 0.0316 µM, first compound 3.16 µM
  viability, T/C: 17.6%
Second compound 0.0316 µM, first compound 10 µM
  viability, T/C: 0.08%
[5]
  viability, T/C: 34.9%
[6]
  viability, T/C: 23%
[7]
  viability, T/C: 26.5%
[8]
  viability, T/C: 23.6%
Second compound 0.1 µM, first compound 3.16 µM
  viability, T/C: 16.1%
Second compound 0.1 µM, first compound 10 µM
  viability, T/C: 0.15%
[9]
  viability, T/C: 25.3%
[10]
  viability, T/C: 25.3%
[11]
  viability, T/C: 22.7%
[12]
  viability, T/C: 24.5%
Second compound 0.316 µM, first compound 3.16 µM
  viability, T/C: 10.8%
Second compound 0.316 µM, first compound 10 µM
  viability, T/C: 0.08%
[13]
  viability, T/C: 22.4%
[14]
  viability, T/C: 24.6%
[15]
  viability, T/C: 28%
[16]
  viability, T/C: 24.4%
Second compound 1 µM, first compound 3.16 µM
  viability, T/C: 5.74%
Second compound 1 µM, first compound 10 µM
  viability, T/C: 0.07%
[17]
  viability, T/C: 20.7%
[18]
  viability, T/C: 26.8%
[19]
  viability, T/C: 22.5%
[20]
  viability, T/C: 21%
Second compound 3.16 µM, first compound 3.16 µM
  viability, T/C: 3.26%
Second compound 3.16 µM, first compound 10 µM
  viability, T/C: 0.18%
[21]
  viability, T/C: 21.7%
[22]
  viability, T/C: 14.1%
[23]
  viability, T/C: 20.6%
[24]
  viability, T/C: 28.5%
Second compound 10 µM, first compound 3.16 µM
  viability, T/C: 3.94%
Second compound 10 µM, first compound 10 µM
  viability, T/C: 0.22%

## CCc1c2c(nc3ccc(O)cc13)-c1cc3c(c(=O)n1C2)COC(=O)[C@]3(O)CC + CN1CCN(c2cc(C(=O)Nc3cc4cc(-c5cnn(C)c5)ccc4cn3)ccn2)CC1
Second compound 0.0316 µM
  IC50: < 0.00316 µM
Second compound 0.1 µM
  IC50: < 0.00316 µM
Second compound 0.316 µM
  IC50: < 0.00316 µM
Second compound 1 µM
  IC50: < 0.00316 µM
Second compound 3.16 µM
  IC50: < 0.00316 µM
Second compound 10 µM
  IC50: < 0.00316 µM
Second compound 0.0316 µM, first compound 0.00316 µM
  viability, T/C: 18.9%
Second compound 0.0316 µM, first compound 0.01 µM
  viability, T/C: 14.8%
[1]
  viability, T/C: 12.5%
[2]
  viability, T/C: 6.83%
[3]
  viability, T/C: 4.71%
[4]
  viability, T/C: 2.93%
Second compound 0.1 µM, first compound 0.00316 µM
  viability, T/C: 14.1%
Second compound 0.1 µM, first compound 0.01 µM
  viability, T/C: 11.4%
[5]
  viability, T/C: 7.3%
[6]
  viability, T/C: 4.95%
[7]
  viability, T/C: 3.31%
[8]
  viability, T/C: 1.84%
Second compound 0.316 µM, first compound 0.00316 µM
  viability, T/C: 2.41%
Second compound 0.316 µM, first compound 0.01 µM
  viability, T/C: 2.17%
[9]
  viability, T/C: 1.78%
[10]
  viability, T/C: 0.79%
[11]
  viability, T/C: 0.28%
[12]
  viability, T/C: 0.34%
Second compound 1 µM, first compound 0.00316 µM
  viability, T/C: 0.09%
Second compound 1 µM, first compound 0.01 µM
  viability, T/C: 0.12%
[13]
  viability, T/C: 0.2%
[14]
  viability, T/C: 0.27%
[15]
  viability, T/C: 0.27%
[16]
  viability, T/C: 0.41%
Second compound 3.16 µM, first compound 0.00316 µM
  viability, T/C: 0.14%
Second compound 3.16 µM, first compound 0.01 µM
  viability, T/C: 0.18%
[17]
  viability, T/C: 0.19%
[18]
  viability, T/C: 0.21%
[19]
  viability, T/C: 0.31%
[20]
  viability, T/C: 0.67%
Second compound 10 µM, first compound 0.00316 µM
  viability, T/C: 0.05%
Second compound 10 µM, first compound 0.01 µM
  viability, T/C: 0.1%
[21]
  viability, T/C: 0.12%
[22]
  viability, T/C: 0.13%
[23]
  viability, T/C: 0.15%
[24]
  viability, T/C: 0.1%
